biological target: T1, human mGluR3 (hmGluR3) (Homo sapiens, UniProt Q14832); experiment: Human mGluR3 positive allosteric modulator evaluation using Ca++ functional assay; assay type: cell-based; details: hmGluR3 transiently over-expressed in HEK-293 cells; stimulated by EC50 glutamate concentration; intracellular Ca2+ (Fluo4AM, FLIPR Tetra)
T1 construct: expressed in transfected cells; host or cells: HEK-293 cells, transient co-transfection by electroporation
Experimental: Compounds of the present invention were tested successively for their agonist and positive allosteric modulator activities on human mGluR3 (hmGluR3) transiently over-expressed in HEK-293 cells. Compounds exert agonist activity if they are able to activate hmGluR3 by themselves, i.e., in absence of the endogenous agonist glutamate; and they exert positive allosteric modulator activity if they increase the action of the endogenous agonist glutamate.
HEK-293 cells were maintained in Modified Eagle's Medium supplemented with 10% Foetal Calf Serum, 1% Penicillin/Streptomycin and 1% non-essential amino acids at 37° C./5% CO2.
Cells were co-transfected by electroporation with four DNA plasmids encoding hmGluR3, a chimeric G protein allowing redirection of the activation signal toward intracellular calcium pathway, and two glutamate transporters so as to decrease extracellular glutamate levels and avoid receptor desensitization (Brabet I et al., Neuropharmacology 37(8), 1043-51, 1998). After transfection, cells were seeded in 75 cm^2 culture flasks, and cultured for 24 h.
Receptor activity was detected by changes in intracellular calcium measured using the fluorescent Ca^2+ sensitive dye, Fluo4AM (Molecular Probes).
The day of the assay, medium was aspirated and replaced during 3 hrs by freshly prepared buffer B (HBSS 1×, Hepes 20 mM, MgSO4-7H2O 1 mM, Na2CO3 3.3 mM, CaCl2-2H2O 1.3 mM, 0.5% BSA, Probenecid 2.5 mM). Then, cells were loaded at 37° C./5% CO2 for 1.5 hrs with buffer B containing 1 μM Fluo4AM, 0.1 mg/mL Pluronic Acid, 7 μg/mL Glutamate Pyruvate Transaminase and 2 mM sodium pyruvate. Afterwards cells were washed with buffer B. Cells were then detached from the 75 cm^2 culture flasks with Accutase® (5 min incubation at 37° C.), centrifuged (5 min at 840 rpm), resuspended in buffer B and finally seeded at a density of 30,000 cells/well in black-walled clear-bottom 384-well plates. Addition of compounds on cells and intracellular Ca^2+ measurements (excitation 485 nm, emission 525 nm) were performed by the fluorescence microplate reader FLIPR Tetra (Molecular Devices).
Agonist and positive allosteric modulator activities of compounds were consecutively evaluated on the same cells plate. Agonist activity was first tested during 10 min with the addition of compound alone on the cells. Then, the cells were stimulated by an EC50 glutamate concentration and fluorescence was recorded for additional 3 min. EC50 glutamate concentration is the concentration giving 50% of the maximal glutamate response. Agonist and/or positive allosteric modulator activity(ies) were evaluated in comparison to basal signal or signal evoked by EC50 glutamate concentration alone, respectively.
For potency determination, a dose-response test was performed using 20 concentrations of each compound of the invention. Dose-response curves were fitted using the sigmoïdal dose-response (variable slope) analysis in XLfit Scientific Curve Fitting for Excel (IDBS). EC50 of agonist/EC50 of positive allosteric modulator activity(ies) were calculated. Dose-response experiments were all performed in duplicate, two times independently.

T1 sequence (Q14832 23-879): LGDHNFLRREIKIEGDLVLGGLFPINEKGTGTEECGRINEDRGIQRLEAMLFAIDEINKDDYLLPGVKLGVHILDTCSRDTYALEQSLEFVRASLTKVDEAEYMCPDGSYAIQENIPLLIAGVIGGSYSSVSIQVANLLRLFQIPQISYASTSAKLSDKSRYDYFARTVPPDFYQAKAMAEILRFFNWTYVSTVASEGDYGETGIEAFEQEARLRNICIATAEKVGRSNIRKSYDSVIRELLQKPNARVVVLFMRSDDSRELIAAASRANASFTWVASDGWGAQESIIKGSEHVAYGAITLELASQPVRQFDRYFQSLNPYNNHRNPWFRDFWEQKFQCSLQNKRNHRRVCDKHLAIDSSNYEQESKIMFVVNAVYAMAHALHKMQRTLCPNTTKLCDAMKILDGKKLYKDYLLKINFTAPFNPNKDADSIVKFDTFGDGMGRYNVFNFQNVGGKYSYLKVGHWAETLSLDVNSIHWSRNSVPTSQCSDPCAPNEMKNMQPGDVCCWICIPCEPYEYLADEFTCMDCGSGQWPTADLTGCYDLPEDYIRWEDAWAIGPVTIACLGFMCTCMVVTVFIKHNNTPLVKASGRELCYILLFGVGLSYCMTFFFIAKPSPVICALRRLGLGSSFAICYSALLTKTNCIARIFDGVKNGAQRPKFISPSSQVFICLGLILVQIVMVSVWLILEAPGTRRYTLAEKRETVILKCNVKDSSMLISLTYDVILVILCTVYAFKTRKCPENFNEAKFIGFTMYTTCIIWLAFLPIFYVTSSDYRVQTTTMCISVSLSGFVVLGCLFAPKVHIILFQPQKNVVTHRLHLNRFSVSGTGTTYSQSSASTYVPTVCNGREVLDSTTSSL

EC50	SMILES
> 1000 nM	CN1C(=O)c2cccn2-c2cc(Br)c(F)cc2C12CC2 [Example 9, 9-Bromo-8-fluoro-5-methyl-spiro[benzo[f]pyrrolo[1,2-a][1,4]diazepine-6,1′-cyclopropan]-4(5H)-one]
> 1000 nM	CCC1c2ccc(Br)cc2-n2cccc2C(=O)N1C (stereo not shown) [Example 214, 9-Bromo-5-methyl-6-ethyl-5,6-dihydro-benzo[f]pyrrolo[1,2-a][1,4]diazepin-4-one]
< 100 nM	Cc1ccc(-c2ccc3c(c2)-n2cc(-c4nccs4)cc2C(=O)N(C)C32CC2)cn1 [Example 158]
> 1000 nM	CN1C(=O)c2cccn2-c2cc(Br)cc(F)c2C12CC2 [Example 7, 9-Bromo-7-fluoro-5-methyl-spiro[benzo[f]pyrrolo[1,2-a][1,4]diazepine-6,1′-cyclopropan]-4(5H)-one]
< 100 nM	Cc1ncccc1-c1ccc2c(c1)-n1cc(Cl)cc1C(=O)N(C)C21CC1 [Example 82, 9-(2-Methyl-pyridin-3-yl)-2-chloro-5-methyl-spiro[benzo[f]pyrrolo[1,2-a][1,4]diazepine-6,1′-cyclopropan]-4(5H)-one]
100 to 1000 nM	Cc1ncccc1-c1ccc2c(c1)-n1cc(-c3ccccc3Cl)cc1C(=O)N(C)C21CC1 [Example 147]
100 to 1000 nM	Cc1cc(-c2ccc3c(c2)-n2nc(-c4ccccc4)cc2C(=O)N(C)C32CC2)ccn1 [Example 122, 9-(2-Methyl-pyridin-4-yl)-5-methyl-2-phenyl-spiro[benzo[f]pyrazolo[1,5-a][1,4]diazepine-6,1′-cyclopropan]-4(5H)-one]
> 1000 nM	CN1C(=O)c2cc(-c3nnco3)cn2-c2cc(Br)ccc2C12CC2 [Example 189]
100 to 1000 nM	Cc1ncccc1-c1ccc2c(c1)-n1cc(-c3ccc(F)cc3)cc1C(=O)N(C)C21CC1 [Example 150]
100 to 1000 nM	Cc1ncccc1-c1ccc2c(c1)-n1cccc1C(=O)N(C)C2(C)C [Example 223, 5,6,6-Trimethyl-9-(2-methyl-pyridin-3-yl)-5,6-dihydro-benzo[f]pyrrolo[1,2-a][1,4]diazepin-4-one]
100 to 1000 nM	CCC1c2ccc(-c3cccnc3C)cc2-n2cccc2C(=O)N1C (stereo not shown) [Example 220, 6-Ethyl-5-methyl-9-(2-methyl-pyridin-3-yl)-5,6-dihydro-benzo[f]pyrrolo[1,2-a][1,4]diazepin-4-one]
> 1000 nM	CN1C(=O)c2cc(-c3ccccc3)cn2-c2ccc(Br)cc2C12CC2 [Example 16, 8-Bromo-5-methyl-2-phenyl-spiro[benzo[f]pyrrolo[1,2-a][1,4]diazepine-6,1′-cyclopropan]-4(5H)-one]

Further lines, the compound ahead of its results:

SMILES	EC50
CN1Cc2ccc(-c3ccc(N)nc3)cc2-n2cc(-c3ccccc3)cc2C1=O [Example 165, 9-(6-Amino-pyridin-3-yl)-5-methyl-2-phenyl-5,6-dihydro-benzo[f]pyrrolo[1,2-a][1,4]diazepin-4-one]	100 to 1000 nM
Cc1ncccc1-c1ccc2c(c1)-n1ccc(Cl)c1C(=O)N(C)C21CC1 [Example 84, 9-(2-Methyl-pyridin-3-yl)-3-chloro-5-methyl-spiro[benzo[f]pyrrolo[1,2-a][1,4]diazepine-6,1′-cyclopropan]-4(5H)-one]	100 to 1000 nM
CN1C(=O)c2cccn2-c2cc(-c3ccc(N4CCOCC4)nc3)ccc2C12CC2 [Example 42, 5-Methyl-9-(6-morpholin-4-yl-pyridin-3-yl)-spiro[benzo[f]pyrrolo[1,2-a][1,4]diazepine-6,1′-cyclopropan]-4(5H)-one]	100 to 1000 nM
Cc1cncc(-c2ccc3c(c2)-n2cc(-c4ccccc4)cc2C(=O)N(C)C32CC2)c1 [Example 98, 5-Methyl-2-phenyl-9-(5-methyl-pyridin-3-yl)-spiro[benzo[f]pyrrolo[1,2-a][1,4]diazepine-6,1′-cyclopropan]-4(5H)-one]	100 to 1000 nM
Cc1ccc(-c2ccc3c(c2)-n2cccc2C(=O)N(C)C32CC2)cn1 [Example 25, 5-Methyl-9-(6-methylpyridin-3-yl)-spiro[benzo[f]pyrrolo[1,2-a][1,4]diazepine-6,1′-cyclopropan]-4(5H)-one]	< 100 nM
CCc1ncccc1-c1ccc2c(c1)-n1cccc1C(=O)N(C)C21CC1 [Example 24, 5-Methyl-9-(2-ethylpyridin-3-yl)-spiro[benzo[f]pyrrolo[1,2-a][1,4]diazepine-6,1′-cyclopropan]-4(5H)-one]	100 to 1000 nM
Cc1ncccc1-c1ccc2c(c1)-n1cc(-c3cccc(Cl)c3)cc1C(=O)N(C)C21CC1 [Example 148]	100 to 1000 nM
Cc1ncccc1-c1cccc2c1-n1cccc1C(=O)N(C)C21CC1 [Example 92, 10-(2-Methyl-pyridin-3-yl)-5-methyl-spiro[benzo[f]pyrrolo[1,2-a][1,4]diazepine-6,1′-cyclopropan]-4(5H)-one]	> 1000 nM
Cc1ncccc1-c1ccc2c(c1)-n1cc(N(C)C)cc1C(=O)N(C)C21CC1 [Example 154]	100 to 1000 nM
CCc1ncccc1-c1ccc2c(c1)-n1cc(-c3ccccc3)cc1C(=O)N(C)C21CC1 [Example 99, 5-Methyl-2-phenyl-9-(2-ethyl-pyridin-3-yl)-spiro[benzo[f]pyrrolo[1,2-a][1,4]diazepine-6,1′-cyclopropan]-4(5H)-one]	100 to 1000 nM
Cc1cc(-c2ccc3c(c2)-n2cc(-c4ccccc4)cc2C(=O)N(C)C32CC2)ccn1 [Example 105, 5-Methyl-2-phenyl-9-(2-methyl-pyridin-4-yl)-spiro[benzo[f]pyrrolo[1,2-a][1,4]diazepine-6,1′-cyclopropan]-4(5H)-one]	100 to 1000 nM
Cc1ncccc1-c1ccc2c(c1)-n1cccc1C(=O)N(C)C2C (stereo not shown) [Example 218, 5,6-Dimethyl-9-(2-methyl-pyridin-3-yl)-5,6-dihydro-benzo[f]pyrrolo[1,2-a][1,4]diazepin-4-one]	100 to 1000 nM
CN1C(=O)c2cccn2-c2cc(-c3ccc(Cl)nc3)ccc2C12CC2 [Example 54, 5-Methyl-9-(6-chloropyridin-3-yl)-spiro[benzo[f]pyrrolo[1,2-a][1,4]diazepine-6,1′-cyclopropan]-4(5H)-one]	< 100 nM
Cc1ncccc1-c1ccc2c(c1)-n1ccnc1C(=O)N(C)C2 [Example 216, 5-Methyl-9-(2-methylpyridin-3-yl)-5,6-dihydro-4H-benzo[f]imidazo[1,2-a][1,4]diazepin-4-one]	> 1000 nM
Cc1ncccc1-c1ccc2c(c1)-n1cc(-c3cnc[nH]3)cc1C(=O)N(C)C21CC1 [Example 183]	< 100 nM
CN1C(=O)c2cccn2-c2cc(-c3cccnc3)ccc2C12CC2 [Example 23, 5-Methyl-9-(pyridin-3-yl)-spiro[benzo[f]pyrrolo[1,2-a][1,4]diazepine-6,1′-cyclopropan]-4(5H)-one]	100 to 1000 nM
CN1C(=O)c2cccn2-c2cc(-c3ccc4nccn4c3)ccc2C12CC2 [Example 41, 5-Methyl-9-(imidazo[1,2-a]pyridin-6-yl)-spiro[benzo[f]pyrrolo[1,2-a][1,4]diazepine-6,1′-cyclopropan]-4(5H)-one]	< 100 nM
CN(C)c1ncccc1-c1ccc2c(c1)-n1cc(-c3ccccc3)cc1C(=O)N(C)C21CC1 [Example 119, 5-Methyl-2-phenyl-9-(2-dimethylamino-pyridin-3-yl)-spiro[benzo[f]pyrrolo[1,2-a][1,4]diazepine-6,1′-cyclopropan]-4(5H)-one]	> 1000 nM
Cc1ncccc1-c1ccc2c(c1)-n1cc(-c3ccccc3)nc1C(=O)N(C)C2 [Example 166, 5-Methyl-9-(2-methylpyridin-3-yl)-2-phenyl-5,6-dihydro-4H-benzo[f]imidazo[1,2-a][1,4]diazepin-4-one]	100 to 1000 nM

Source: US11008323B2, “Substituted tricyclic 1,4-benzodiazepinone derivatives as allosteric modulators of group II metabotropic glutamate receptors” (Domain Therapeutics, priority 2015, dated 2021)
